The values below come from PubChem BioAssay (NCI).

Some test systems named below: SK-OV-3 ovarian; A549 NSCLC; CCRF-CEM leukemia; IGROV1 ovarian; HT29 colon; LOX IMVI melanoma; SF-295 CNS; MALME-3M melanoma; MDA-MB-231 breast; SNB-19 CNS.
Holding throughout (experiment): NCI-60 cell line screen, 48 h

Where “and” joins values, the source holds several entries; their conditions need not be identical. Equal entries are not always repeated.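 These data come from cells grown in 96-well plates and exposed to compound for 48 hours at five concentrations. At the GI50, growth is halved. Definition used: TGI = concentration required for complete inhibition of growth.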

Regarding `COc1ccc2c(c1)nnc1c3cccnc3[nH]c21`, the GI50 in the experiment on SK-OV-3 ovarian was 2690 nM and 2380 nM; with A549 NSCLC it was 7900 nM and 3530 nM; with CCRF-CEM leukemia, 37.2 nM; with IGROV1 ovarian it was 310 nM and 550 nM; in the experiment on HT29 colon, 751 nM and 541 nM; in the experiment on LOX IMVI melanoma, 758 nM and 403 nM. Also, the GI50 is 1060 nM and 926 nM in the experiment on MALME-3M melanoma; 1420 nM and 1560 nM with MDA-MB-231 breast; 7610 nM and 9990 nM in the experiment on SNB-19 CNS. For the same compound, the TGI with SK-OV-3 ovarian is 13500 nM and 12500 nM; in the experiment on A549 NSCLC, 42500 nM and 15400 nM; with CCRF-CEM leukemia, more than 100000 nM; with LOX IMVI melanoma, 4220 nM and 2610 nM; in the experiment on SF-295 CNS, 11300 nM and > 100000 nM; with MALME-3M melanoma it was 4630 nM and 4180 nM. The TGI with MDA-MB-231 breast is 11400 nM and 6100 nM; with SNB-19 CNS, 18700 nM and 33400 nM.

As to `NS(=O)(=O)c1ccc(N=Nc2c[nH]c(=O)c(O)c2)cc1`, the TGI is more than 100000 nM in the experiment with SK-OV-3 ovarian; more than 100000 nM with A549 NSCLC; 44100 nM with CCRF-CEM leukemia; more than 100000 nM in the experiment with IGROV1 ovarian; more than 100000 nM in the experiment with HT29 colon; more than 100000 nM with LOX IMVI melanoma. Moreover, the TGI with SF-295 CNS was more than 100000 nM; with MALME-3M melanoma it was 82400 nM; in the experiment with MDA-MB-231 breast it was more than 100000 nM; in the experiment on SNB-19 CNS, more than 100000 nM.

As for `Cn1c(I)c(C#C[Si](C)(C)C)c(=O)[nH]c1=O`, the GI50 was 17200 nM with SK-OV-3 ovarian; 21500 nM in the experiment with A549 NSCLC; 1740 nM in the experiment on CCRF-CEM leukemia; 1900 nM in the experiment with IGROV1 ovarian; 2410 nM with HT29 colon; 2090 nM in the experiment with LOX IMVI melanoma. Moreover, the GI50 was 20000 nM in the experiment with SF-295 CNS, 1960 nM in the experiment with MALME-3M melanoma, 2500 nM in the experiment on MDA-MB-231 breast and 16000 nM in the experiment on SNB-19 CNS. Also, the TGI worked out at 30900 nM in the experiment on SK-OV-3 ovarian; 38100 nM with A549 NSCLC; 3650 nM with CCRF-CEM leukemia; 3630 nM in the experiment with IGROV1 ovarian; 5640 nM in the experiment on HT29 colon; 4000 nM with LOX IMVI melanoma. Also, the TGI in the experiment on SF-295 CNS is 45800 nM; with MALME-3M melanoma, 4250 nM; in the experiment with MDA-MB-231 breast, 7250 nM; with SNB-19 CNS, 30100 nM.

Regarding `COC(=O)c1cc(-c2ccc(S(C)(=O)=O)cc2)[nH]c1N/N=C/c1c(Cl)cccc1Cl`, the GI50 in the experiment with SK-OV-3 ovarian is 852 nM; in the experiment with A549 NSCLC, 656 nM; in the experiment on CCRF-CEM leukemia it was 759 nM; in the experiment with IGROV1 ovarian it was 482 nM; with HT29 colon, 373 nM; in the experiment with LOX IMVI melanoma it was 1610 nM. The GI50 in the experiment with SF-295 CNS is 281 nM; in the experiment on MALME-3M melanoma, 1350 nM; in the experiment on MDA-MB-231 breast, 1730 nM; in the experiment with SNB-19 CNS, 516 nM. Also, the TGI was 28600 nM with SK-OV-3 ovarian; more than 39400 nM with A549 NSCLC; 67300 nM in the experiment on IGROV1 ovarian; 4450 nM in the experiment with HT29 colon; more than 100000 nM in the experiment with LOX IMVI melanoma; 3240 nM in the experiment with SF-295 CNS. The TGI in the experiment on MALME-3M melanoma is 23100 nM; in the experiment with MDA-MB-231 breast, more than 100000 nM; with SNB-19 CNS, more than 100000 nM.

On to `O=C1/C(=C/c2ccc(C(F)(F)F)cc2)COc2ccc(O)c(O)c21`, for which the GI50 is 2890 nM in the experiment on SK-OV-3 ovarian; 1510 nM with A549 NSCLC; 335 nM in the experiment on CCRF-CEM leukemia; 476 nM with IGROV1 ovarian; 377 nM with LOX IMVI melanoma; 3150 nM with SF-295 CNS. In addition, the results for the GI50 in the experiment on MALME-3M melanoma, with MDA-MB-231 breast and in the experiment on SNB-19 CNS were 1550 nM, 1180 nM and 1480 nM, respectively. For the same compound, the TGI in the experiment on SK-OV-3 ovarian worked out at 10800 nM; in the experiment with A549 NSCLC, 3150 nM; in the experiment on CCRF-CEM leukemia it was 2250 nM; in the experiment with IGROV1 ovarian, 1840 nM; in the experiment with LOX IMVI melanoma, 1480 nM; in the experiment with SF-295 CNS it was 8520 nM. The TGI stood at 3300 nM in the experiment with MALME-3M melanoma, 2650 nM in the experiment on MDA-MB-231 breast and 2870 nM with SNB-19 CNS.

On to `S=C(SSC(=S)N1CCCCC1)N1CCCCC1`, for which the GI50 with SK-OV-3 ovarian is 48400 nM; in the experiment on A549 NSCLC, 24100 nM; in the experiment with CCRF-CEM leukemia it was 8180 nM; with HT29 colon, 14300 nM; in the experiment on LOX IMVI melanoma, 5640 nM; in the experiment on SF-295 CNS, 40100 nM. Moreover, the GI50 was 16400 nM in the experiment with MALME-3M melanoma, 15200 nM in the experiment with MDA-MB-231 breast and 51000 nM in the experiment on SNB-19 CNS. Further, the TGI is more than 100000 nM with SK-OV-3 ovarian; more than 100000 nM in the experiment on A549 NSCLC; 58300 nM in the experiment on CCRF-CEM leukemia; 29000 nM in the experiment on HT29 colon; 18100 nM in the experiment with LOX IMVI melanoma; more than 100000 nM in the experiment on SF-295 CNS. The figures for the TGI with MALME-3M melanoma, in the experiment on MDA-MB-231 breast and in the experiment on SNB-19 CNS were 50400 nM, 41200 nM and more than 100000 nM, respectively.

Take `COc1ccc2c(c1)C(=O)c1c-2n(CCCN(C)C)c(=O)c2cc([N+](=O)[O-])ccc12`: the GI50 with SK-OV-3 ovarian, with CCRF-CEM leukemia, in the experiment on IGROV1 ovarian, in the experiment on HT29 colon, in the experiment on LOX IMVI melanoma and with SF-295 CNS was less than 10 nM throughout. The values for the GI50 with MALME-3M melanoma, in the experiment on MDA-MB-231 breast and with SNB-19 CNS were 20.7 nM, 1080 nM and less than 10 nM, respectively. Moreover, the TGI in the experiment with SK-OV-3 ovarian was 666 nM; in the experiment with CCRF-CEM leukemia it was less than 10 nM; in the experiment on IGROV1 ovarian, 13600 nM; with HT29 colon it was 610 nM; in the experiment with LOX IMVI melanoma, 108 nM; in the experiment on SF-295 CNS, less than 18.8 nM. The TGI in the experiment on MALME-3M melanoma amounted to 892 nM; in the experiment with MDA-MB-231 breast, 2830 nM; in the experiment on SNB-19 CNS, 7930 nM.

For the compound `COc1cc(-c2ccc[nH]2)[nH]c1/C=C1\N=C(C)C(CC(=O)OCC(C)(C)C)=C1C`, the GI50 is 442 nM in the experiment on SK-OV-3 ovarian; 244 nM in the experiment with A549 NSCLC; 62.5 nM with CCRF-CEM leukemia; 172 nM in the experiment with HT29 colon; 73.3 nM in the experiment on LOX IMVI melanoma; 171 nM in the experiment on SF-295 CNS. Moreover, the figures for the GI50 in the experiment on MALME-3M melanoma, in the experiment on MDA-MB-231 breast and in the experiment with SNB-19 CNS were 400 nM, 104 nM and 468 nM, respectively. The TGI in the experiment on SK-OV-3 ovarian was 2020 nM; in the experiment on A549 NSCLC it was 1240 nM; in the experiment on CCRF-CEM leukemia, 2120 nM; with HT29 colon it was 1170 nM; in the experiment with LOX IMVI melanoma it was 467 nM; in the experiment with SF-295 CNS, 510 nM. Further, the TGI in the experiment on MALME-3M melanoma worked out at 1690 nM; in the experiment with MDA-MB-231 breast it was 1530 nM; in the experiment with SNB-19 CNS it was 2510 nM.
